The results in this text go back to US10105357B2, “Indication of antibiotic drugs for preparation of cancer inhibition pharmaceutical composition” (LAUNX BIOMEDICAL CO., LTD., priority 2014, dated 2018).

Counter-ions that a name gives are not always drawn. Like-named read-outs stand apart in the source and are kept apart here.

Holding throughout (format): cell-based, human
Series [1] concerns MKN-45 (Gastric Adenocarcinoma). In words: Cell viability analysis, gastric cancer MKN-45. As to conditions: for viability at 10 µM: Homo sapiens.
Series [2] deals with HeLa (Cervix Adenocarcinoma). The series is described as follows: Cell viability analysis, cervical cancer HeLa. As to conditions: for viability at 10 µM: Homo sapiens, HeLa.
Series [3] has as its system LoVo (Colorectal Adenocarcinoma). The series is described as follows: Cell viability analysis, colon cancer LoVo. As to conditions: for viability at 10 µM: Homo sapiens, LoVo.
Series [4] relates to HL-60 (Acute Promyelocytic Leukemia). In words: Cell viability analysis, leukemia HL-60. The note with it: for viability at 10 µM: Homo sapiens.
For series [5], the system named is A375 (Amelanotic Melanoma). In words: Cell viability analysis, skin cancer A375. The note with it: for viability at 10 µM: Homo sapiens.
The test system of series [6] is TSGH-8301 (Urinary Bladder Carcinoma). The series is described as follows: Cell viability analysis, bladder cancer TSGH-8301. The note with it: for viability at 10 µM: Homo sapiens.
Series [7] relates to PC3 (p53−) (Prostate Adenocarcinoma). In words: Cell viability analysis, prostate cancer PC3. As to conditions: for viability at 10 µM: Homo sapiens, 72 h.
The test system of series [8] is A549 (Lung Adenocarcinoma). The series is described as follows: Cell viability analysis, lung cancer A549. As to conditions: for viability at 10 µM: Homo sapiens.
Series [9] deals with HepG2 (Hepatocellular Carcinoma). The series is described as follows: Cell viability analysis, hepatic cancer HepG2. As to conditions: for viability at 10 µM: Homo sapiens.
For series [10], the system named is MCF7 (Mammary Gland, Adenocarcinoma). The series is described as follows: Cell viability analysis, breast cancer MCF7. As to conditions: for viability at 10 µM: Homo sapiens.
The test system of series [11] is AGS (Gastric Adenocarcinoma). The series is described as follows: Cell viability analysis, gastric cancer AGS. As to conditions: for viability at 10 µM: Homo sapiens.
The subject of series [12] is HI650 (Lung Adenocarcinoma). In words: Cell viability analysis, lung cancer HI650. The note with it: for viability at 10 µM: Homo sapiens.
Where [13] appears, read: MKN-45, 72 h, drug 10 μM, 72 hours, WST-1, OD450 nm, read-out: cell viability (survival rate), MKN-45.
Setting [14] is: 72 h, drug 10 μM, 72 hours, WST-1, OD450 nm, read-out: cell viability (survival rate), HeLa.
Where [15] appears, read: 72 h, read-out: cell viability (survival rate), LoVo, drug 10 μM, 72 hours, WST-1, OD450 nm.
Setting [16] is: HL-60, 72 h, drug 10 μM, 72 hours, WST-1, OD450 nm, read-out: cell viability (survival rate), HL-60.
Setting [17] is: A-375, 72 h, drug 10 μM, 72 hours, WST-1, OD450 nm, read-out: cell viability (survival rate), A375.
The mark [18] stands for this setting: 72 h, drug 10 μM, 72 hours, WST-1, OD450 nm, read-out: cell viability (survival rate), TSGH.
Setting [19] is: drug 10 μM, 72 hours, WST-1, OD450 nm, read-out: cell viability (survival rate), PC3.
The mark [20] stands for this setting: A549, 72 h, drug 10 μM, 72 hours, WST-1, OD450 nm, read-out: cell viability (survival rate), A549.
Where [21] appears, read: HepG2, 72 h, drug 10 μM, 72 hours, WST-1, OD450 nm, read-out: cell viability (survival rate), HepG2.
Where [22] appears, read: 72 h, drug 10 μM, 72 hours, WST-1, OD450 nm, read-out: cell viability (survival rate), AGS.
Setting [23] is: NCI-H1650, 72 h, drug 10 μM, 72 hours, WST-1, OD450 nm, read-out: cell viability (survival rate), H1650.
Where [24] appears, read: 72 h, read-out: cell viability (survival rate), HeLa, drug 10 μM, 72 hours, WST-1, OD450 nm.
The mark [25] stands for this setting: HL-60, 72 h, read-out: cell viability (survival rate), HL-60, drug 10 μM, 72 hours, WST-1, OD450 nm.
[26] abbreviates: A-375, 72 h, read-out: cell viability (survival rate), A375, drug 10 μM, 72 hours, WST-1, OD450 nm.
The mark [27] stands for this setting: 72 h, read-out: cell viability (survival rate), TSGH, drug 10 μM, 72 hours, WST-1, OD450 nm.
Setting [28] is: read-out: cell viability (survival rate), PC3, drug 10 μM, 72 hours, WST-1, OD450 nm.
[29] abbreviates: A549, 72 h, read-out: cell viability (survival rate), A549, drug 10 μM, 72 hours, WST-1, OD450 nm.
[30] abbreviates: HepG2, 72 h, read-out: cell viability (survival rate), HepG2, drug 10 μM, 72 hours, WST-1, OD450 nm.
[31] abbreviates: MCF7, 72 h, read-out: cell viability (survival rate), MCF7, drug 10 μM, 72 hours, WST-1, OD450 nm.
The mark [32] stands for this setting: 72 h, read-out: cell viability (survival rate), AGS, drug 10 μM, 72 hours, WST-1, OD450 nm.
Where [33] appears, read: NCI-H1650, 72 h, read-out: cell viability (survival rate), H1650, drug 10 μM, 72 hours, WST-1, OD450 nm.
Where [34] appears, read: MKN-45, 72 h, read-out: cell viability (survival rate), MKN-45, drug 10 μM, 72 hours, WST-1, OD450 nm.
The mark [35] stands for this setting: drug 10 μM, 72 hours, WST-1, OD450 nm.

`Nc1nc(NC2CC2)c2ncn([C@H]3C=C[C@@H](CO)C3)c2n1` [Abacavir sulfate]: the viability at 10 µM in series [1] (setting [13]) came to 94.6%; in series [2] (setting [14]), 84.2%; in series [3] (setting [15]), 100%; in [4] (setting [16]), 108%; in series [5] (setting [17]), 57.2%; in series [6] (setting [18]), 148%. Further, the viability at 10 µM in series [7] (setting [19]) amounted to 76%; in series [8] (setting [20]), 87%; in [9] (setting [21]) it was 82.6%; in series [10] (MCF7, 72 h, drug 10 μM, 72 hours, WST-1, OD450 nm, read-out: cell viability (survival rate), MCF7) it was 79.6%; in series [11] (setting [22]), 97.1%; in [12] (setting [23]), 67%.
For `Nc1nccs1` [Aminothiazole], the viability at 10 µM was 65.7% in [2] (setting [24]); 86.4% in series [3] (setting [15]); 121% in [4] (setting [25]); 78.4% in [5] (setting [26]); 86% in series [6] (setting [27]); 93.8% in [7] (setting [28]). The viability at 10 µM in series [8] (setting [29]) worked out at 56.1%; in [9] (setting [30]) it was 90.4%; in series [10] (setting [31]) it was 108%; in [11] (setting [32]), 62.3%; in series [12] (setting [33]) it was 68.7%.
With `C=CC1=C(C(=O)O)N2C(=O)[C@@H](NC(=O)/C(=N\O)c3csc(N)n3)[C@H]2SC1` [Cefdinir (Omnicef), Cefdinir], the viability at 10 µM in series [1] (setting [34]) amounted to 70.5%; in series [2] (setting [24]), 86.4%; in series [3] (setting [15]), 111%; in series [4] (setting [25]), 104%; in series [5] (setting [26]), 92.5%; in [6] (setting [27]), 35.6%. Also, the viability at 10 µM in series [7] (setting [28]) came out at 135%; in series [8] (setting [29]), 97%; in series [9] (setting [30]) it was 106%; in series [10] (setting [31]), 55.1%; in series [11] (setting [32]), 79.1%; in series [12] (setting [33]) it was 93.6%.
Regarding `CCC[C@@H]1C[C@@H](C(=O)N[C@@H]([C@H]2O[C@H](SC)[C@H](OP(=O)(O)O)[C@@H](O)[C@H]2O)[C@H](C)Cl)N(C)C1` [Clindamycin phosphate], the viability at 10 µM in series [1] (setting [34]) is 85.6%; in [2] (setting [24]), 61.4%; in [3] (setting [15]), 44.4%; in series [4] (setting [25]), 110%; in series [5] (setting [26]), 81.3%; in [6] (setting [27]) it was 79.6%. The viability at 10 µM in series [7] (setting [28]) was found to be 40%; in [8] (setting [29]) it was 31%; in series [9] (setting [30]) it was 90.2%; in series [10] (setting [31]), 38.3%; in series [11] (setting [32]), 91.6%; in [12] (setting [33]) it was 87%.
In the case of `CN(C)CCCN1c2ccccc2CCc2ccc(Cl)cc21.Cl` [Clomipramine HCl (Anafranil)], the “cell viability (survival rate), MKN-45” value in [1] (setting [35]) was 70.5. In [2] (setting [35]), the “cell viability (survival rate), HeLa” value came out at 167.6. Moreover, the “cell viability (survival rate), LoVo” value in series [3] (setting [35]) was found to be 87.1. Besides, in [4] (setting [35]), the “cell viability (survival rate), HL-60” value came out at 82.7. For the same compound, the “cell viability (survival rate), A375” value in [5] (setting [35]) is 88.9. Further, the “cell viability (survival rate), TSGH” value in series [6] (setting [35]) was found to be 46.2. Besides, the “cell viability (survival rate), PC3” value in series [7] (setting [35]) is listed as 75.8. Besides, the “cell viability (survival rate), A549” value in [8] (setting [35]) was 69.1. Besides, the “cell viability (survival rate), HepG2” value in [9] (setting [35]) is given as 115.6. Also, the “cell viability (survival rate), MCF7” value in [10] (setting [35]) was 75.7. In series [11] (setting [35]), the “cell viability (survival rate), AGS” value is listed as 60.2. Besides, the “cell viability (survival rate), H1650” value in [12] (setting [35]) is recorded as 47.5.
`Cc1cc(=O)[nH]c(=S)[nH]1` [Methylthiouracil]: the viability at 10 µM in [1] (setting [13]) worked out at 79.9%; in series [2] (setting [14]), 88.3%; in [3] (setting [15]), 98.9%; in series [4] (setting [16]) it was 106%; in [5] (setting [17]), 72.1%; in [6] (setting [18]), 83.6%. Also, the viability at 10 µM in [7] (setting [19]) was 151%; in [8] (setting [20]), 164%; in [9] (setting [21]), 106%; in series [11] (setting [22]) it was 84.8%; in series [12] (setting [23]), 90.2%.
In the case of `O=C([O-])[C@H](O)[C@@H](O)[C@H](O)[C@H](O)CO.[Na+]` [Sodium Gluconate], the viability at 10 µM was determined as 93% in series [1] (MKN-45, drug 10 μM, 72 hours, WST-1, OD450 nm, read-out: cell viability (survival rate), MKN-45); 73% in [2] (drug 10 μM, 72 hours, WST-1, OD450 nm, read-out: cell viability (survival rate), HeLa); 100% in series [3] (drug 10 μM, 72 hours, WST-1, OD450 nm, read-out: cell viability (survival rate), LoVo); 91.2% in series [4] (HL-60, drug 10 μM, 72 hours, WST-1, OD450 nm, read-out: cell viability (survival rate), HL-60); 116% in series [5] (A-375, drug 10 μM, 72 hours, WST-1, OD450 nm, read-out: cell viability (survival rate), A375); 97.4% in series [6] (drug 10 μM, 72 hours, WST-1, OD450 nm, read-out: cell viability (survival rate), TSGH). Besides, the viability at 10 µM is 91.9% in [8] (A549, drug 10 μM, 72 hours, WST-1, OD450 nm, read-out: cell viability (survival rate), A549); 95.3% in [9] (HepG2, drug 10 μM, 72 hours, WST-1, OD450 nm, read-out: cell viability (survival rate), HepG2); 94.7% in [10] (MCF7, drug 10 μM, 72 hours, WST-1, OD450 nm, read-out: cell viability (survival rate), MCF7); 90.8% in series [11] (drug 10 μM, 72 hours, WST-1, OD450 nm, read-out: cell viability (survival rate), AGS); 94.6% in [12] (NCI-H1650, drug 10 μM, 72 hours, WST-1, OD450 nm, read-out: cell viability (survival rate), H1650).
`CCCc1nc(C)c2c(=O)[nH]c(-c3cc(S(=O)(=O)N4CCN(CC)CC4)ccc3OCC)nn12` [Vardenafil (Vivanza), Vardenafil]: the viability at 10 µM in series [1] (setting [34]) came to 68.2%; in series [2] (setting [24]), 61.7%; in series [3] (setting [15]) it was 106%; in series [4] (setting [25]), 127%; in [5] (setting [26]), 73.2%; in series [6] (setting [27]) it was 57.8%. The viability at 10 µM worked out at 96.5% in series [8] (setting [29]); 81.8% in series [9] (setting [30]); 117% in series [10] (setting [31]); 86.5% in series [11] (setting [32]); 67.2% in series [12] (setting [33]).
On to `Fc1ccc([C@@H]2CCNC[C@H]2COc2ccc3c(c2)OCO3)cc1` [paroxetine], for which the viability at 10 µM in series [6] (72 h, read-out: The results of antibiotic drug inhibiting cancer cell lines (cell viability analysis), TSGH-8301, TSGH-8301, repeated experiment) worked out at 38.4%.

As a reminder, the viability is a read-out of living cells in per cent, often relative to untreated cells.
